Test results reported in doi:10.1101/466938v1, “The distinct biochemical property enables thymidylate kinase as a drug target and participates in pyrimidine drug sensitivity in Candida albicans” (biorxiv, 2018).
Values after ≈ are worked out from the molar mass of the structure shown.

Key:
hTMPK = target: T1, hTMPK (Homo sapiens, UniProt P23919); test: NADH-coupled assay (pyruvate kinase / lactate dehydrogenase); type: biochemical; details: 2 mM ATP, 100 mM Tris-HCl, 100 mM KCl, 10 mM MgCl2
T1 construct: gene DTYMK; pGEX-2T in E. coli BL21; N-terminal GST cut by thrombin
T1 sequence (P23919 1-212): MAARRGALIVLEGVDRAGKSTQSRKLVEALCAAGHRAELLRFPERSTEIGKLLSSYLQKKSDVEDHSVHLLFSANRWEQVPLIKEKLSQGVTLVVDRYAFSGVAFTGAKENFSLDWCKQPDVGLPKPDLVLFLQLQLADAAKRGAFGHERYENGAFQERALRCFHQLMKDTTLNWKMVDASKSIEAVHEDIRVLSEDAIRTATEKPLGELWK

CaTMPK = target: T2, CaTMPK (Candida albicans, UniProt Q59TV7); test: as above; type: biochemical; details: 2 mM ATP, 100 mM Tris-HCl, 100 mM KCl, 10 mM MgCl2
T2 construct: gene CAALFM_C111790WA; pGEX-2T in E. coli BL21; N-terminal GST cut by thrombin; CTG codon changed to TCG to keep native Ser68; synthetic gene GenScript #5001191-1
T2 sequence (Q59TV7 1-224 limits assumed): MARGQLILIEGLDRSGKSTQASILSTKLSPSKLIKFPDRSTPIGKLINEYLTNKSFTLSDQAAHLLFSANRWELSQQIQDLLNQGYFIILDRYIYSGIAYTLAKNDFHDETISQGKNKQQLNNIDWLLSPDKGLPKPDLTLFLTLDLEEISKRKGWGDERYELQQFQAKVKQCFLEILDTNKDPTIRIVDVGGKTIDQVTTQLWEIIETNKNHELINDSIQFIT

[1] = tested on: T3, Candida albicans ATCC90028; test: microbe, parasite or virus in culture; parameters: species or system Candida albicans strains; CLSI M27 broth microdilution, RPMI 1640, OD600 growth, MIC at 50% inhibition; details: ATCC90028, 24 h, read-out: 5-FUrd MIC (µg/mL)
T3 construct: ATCC 90028
Description: (§1) Minimum inhibitory concentrations (MICs) of 5-FUrd were determined by broth microdilution method in accordance with the guidelines in Clinical and Laboratory Standards Institute (CLSI) document M27[25], using RPMI 1640 medium containing 0.165 M MOPs (pH 7.0) and 0.2% glucose, an inoculum of 10^3 cells/well, and incubated for 24 hr at 35°C, followed by OD600 reading by TECAN SPARK plate reader. The MIC50 of 5-FUrd was determined as the lowest dosage of 5-FUrd causing 50% inhibition of the growth by using the concentrations in the range of 0.004-2μg/mL. MICs of […] of human use (5-FC; four azoles: posaconazole, voriconazole, itraconazole, fluconazole; and three echinocandins: anidulafungin, caspofungin and micafungin) were determined by the microdilution colorimetric Sensititre YeastOne SYO-09 panel (TREK Diagnostic Systems, Cleveland, OH, USA); in accordance with the manufacturer’s instructions. MICs values were determined visually, after 24 hours of incubation, as the lowest concentration of drug that caused complete inhibition (amphotericin B) or a significant diminution (≥50% inhibition; flucytosine, azoles and echinocandins) of growth relative to that of the growth control. Table 2. Minimum inhibitory concentrations of 5-FUrd and antifungal drugs of clinical used for pathogenic and drug-resistant isolates of Candida albicans^a We further tested the 5-FUrd sensitivity of a number of pathogenic C. albicans isolates from patients. […] Because 5-FC is intracellularly metabolized to 5-FU, we asked why the 5-FC-resistant isolates remained sensitive to 5-FUrd. Several mutations in 5-FC resistant strains were identified in the enzymes involved in the formation of 5-FUMP from 5-FC, including purine-cytosine permease (Fcy2), cytosine deaminase (Fca1) and uracil phosphoribosyltransferase (Fur1). These 5-FC-resistant but 5-FUrd-sensitive strains might have mutations in these genes. 5-FUrd is transported into C. albicans through uridine permease (Fui1) and is then phosphorylated to 5-FUMP by uridine kinase (Urk1). Presumably, activation of 5-FUrd metabolism by the Fui1 and Urk1 pathways can overcome the defects in genes mediating 5-FC activation, namely, Fcy2, Fca1 and Fur1, leading to toxicity, as depicted in Fig 6. One important effect of antifungal drugs is host liver toxicity.

[2] = tested on: T4, Candida albicans F2014a093; test: microbe, parasite or virus in culture; parameters: species or system Candida albicans strains; CLSI M27 broth microdilution, RPMI 1640, OD600 growth, MIC at 50% inhibition; details: F2014A093, 24 h, read-out: 5-FUrd MIC (µg/mL)
T4 construct: F2014a093
Description: as §1

[3] = tested on: T5, Candida albicans F2014f090; test: microbe, parasite or virus in culture; parameters: species or system Candida albicans strains; CLSI M27 broth microdilution, RPMI 1640, OD600 growth, MIC at 50% inhibition; details: F2014F090, 24 h, read-out: 5-FUrd MIC (µg/mL)
T5 construct: F2014f090
Description: as §1

[4] = tested on: T6, Candida albicans F2015b076; test: microbe, parasite or virus in culture; parameters: species or system Candida albicans strains; CLSI M27 broth microdilution, RPMI 1640, OD600 growth, MIC at 50% inhibition; details: F2015B076, 24 h, read-out: 5-FUrd MIC (µg/mL)
T6 construct: F2015b076
Description: as §1

[5] = tested on: T7, Candida albicans F2015f019; test: microbe, parasite or virus in culture; parameters: species or system Candida albicans strains; CLSI M27 broth microdilution, RPMI 1640, OD600 growth, MIC at 50% inhibition; details: F2015F019, 24 h, read-out: 5-FUrd MIC (µg/mL)
T7 construct: F2015f019
Description: as §1

[6] = tested on: T8, Candida albicans F2016a067; test: microbe, parasite or virus in culture; parameters: species or system Candida albicans strains; CLSI M27 broth microdilution, RPMI 1640, OD600 growth, MIC at 50% inhibition; details: F2016A067, 24 h, read-out: 5-FUrd MIC (µg/mL)
T8 construct: F2016a067
Description: as §1

[7] = tested on: T9, Candida albicans F2016c087; test: microbe, parasite or virus in culture; parameters: species or system Candida albicans strains; CLSI M27 broth microdilution, RPMI 1640, OD600 growth, MIC at 50% inhibition; details: F2016C087, 24 h, read-out: 5-FUrd MIC (µg/mL)
T9 construct: F2016c087
Description: as §1

[8] = tested on: T10, Candida albicans F2016e085; test: microbe, parasite or virus in culture; parameters: species or system Candida albicans strains; CLSI M27 broth microdilution, RPMI 1640, OD600 growth, MIC at 50% inhibition; details: F2016E085, 24 h, read-out: 5-FUrd MIC (µg/mL)
T10 construct: F2016e085
Description: as §1

[9] = tested on: T11, Candida albicans F2016f024; test: microbe, parasite or virus in culture; parameters: species or system Candida albicans strains; CLSI M27 broth microdilution, RPMI 1640, OD600 growth, MIC at 50% inhibition; details: F2016F024, 24 h, read-out: 5-FUrd MIC (µg/mL)
T11 construct: F2016f024
Description: as §1

[10] = tested on: T12, Candida albicans F2016g048; test: microbe, parasite or virus in culture; parameters: species or system Candida albicans strains; CLSI M27 broth microdilution, RPMI 1640, OD600 growth, MIC at 50% inhibition; details: F2016G048, 24 h, read-out: 5-FUrd MIC (µg/mL)
T12 construct: F2016g048
Description: as §1

[11] = tested on: T13, Candida albicans F2017g023; test: microbe, parasite or virus in culture; parameters: species or system Candida albicans strains; CLSI M27 broth microdilution, RPMI 1640, OD600 growth, MIC at 50% inhibition; details: F2017G023, 24 h, read-out: 5-FUrd MIC (µg/mL)
T13 construct: F2017g023
Description: as §1

Candida albicans SC5314 = tested on: T14, Candida albicans SC5314; test: microbe, parasite or virus in culture; parameters: species or system Candida albicans strains; CLSI M27 broth microdilution, RPMI 1640, OD600 growth, MIC at 50% inhibition; details: SC5314, 24 h, read-out: 5-FUrd MIC (µg/mL)
T14 construct: SC5314
Description: as §1

**Q.** What does the source list for `O=c1ccn([C@H]2C[C@H](O)[C@@H](COP(=O)(O)O)O2)c(=O)[nH]1` [dUMP]?
**A.** Km (hTMPK): Steady-state kinetics of CaTMPK and hTMPK using different dUMP concentrations; Km (CaTMPK): Steady-state kinetics of CaTMPK and hTMPK using different dUMP concentrations

**Q.** How did the MIC [1] turn out when `O=c1[nH]c(=O)n([C@@H]2O[C@H](CO)[C@@H](O)[C@H]2O)cc1F` [5-FUrd, 5-fluorouridine] was run?
**A.** The MIC was 0.03 ± 0.011 µg/mL (≈ 0.114 µM).

**Q.** And the MIC [2]?
**A.** Its MIC is 0.021 ± 0.001 µg/mL (≈ 0.0801 µM).

**Q.** And the MIC [3]?
**A.** Its MIC is 0.028 ± 0.002 µg/mL (≈ 0.107 µM).

**Q.** What about the MIC [4] of the same molecule?
**A.** Its MIC is 0.026 ± 0.001 µg/mL (≈ 0.0992 µM).

**Q.** What about the MIC [5] of the same molecule?
**A.** The MIC was 0.036 ± 0.008 µg/mL (≈ 0.137 µM).

**Q.** What about the MIC [6] of the same molecule?
**A.** The MIC was 0.049 ± 0.001 µg/mL (≈ 0.187 µM).

**Q.** And the MIC [7]?
**A.** Its MIC is 0.021 ± 0.008 µg/mL (≈ 0.0801 µM).

**Q.** What about the MIC [8] of the same molecule?
**A.** The MIC was 0.076 ± 0.02 µg/mL (≈ 0.29 µM).

**Q.** What about the MIC [9] of the same molecule?
**A.** The MIC was 0.031 ± 0.003 µg/mL (≈ 0.118 µM).

**Q.** What about the MIC [10] of the same molecule?
**A.** The MIC was 0.063 ± 0.012 µg/mL (≈ 0.24 µM).

**Q.** What about the MIC [11] of the same molecule?
**A.** Its MIC is 0.043 ± 0.001 µg/mL (≈ 0.164 µM).

**Q.** And the MIC (Candida albicans SC5314)?
**A.** The MIC was 0.044 ± 0.003 µg/mL (≈ 0.168 µM).
